# Numbered stars: 1 amine (or outer) side, 2 acyl side, 3 side chain; on linkers, the order of the positions; unused ones are H or OH. Bridge positions count the residues as written; N and C are the ends. Square brackets hold non-standard residues; d marks the D form. Peptide text beside a SMILES is read from it. Trp(βS-Me,7-OMe) = COc1cccc2c([C@H](C)[C@H](N)C(=O)O)c[nH]c12; Ala(1-bicyclo(1.1.1)pentyl) = N[C@@H](CC12CC(C1)C2)C(=O)O; Phe(3-CH2NH2) = O=C([C@H](Cc1cccc(CN[*:3])c1)N[*:1])[*:2]; Phe(4-CH2COOH) = N[C@@H](Cc1ccc(CC(=O)O)cc1)C(=O)O; Trp(4-Cl) = N[C@@H](Cc1c[nH]c2cccc(Cl)c12)C(=O)O; Trp(7-Cl) = N[C@@H](Cc1c[nH]c2c(Cl)cccc12)C(=O)O; Phe(4-CONH2) = NC(=O)c1ccc(C[C@H](N)C(=O)O)cc1; Phe(4-COOH) = N[C@@H](Cc1ccc(C(=O)O)cc1)C(=O)O; Trp(7-aza) = N[C@@H](Cc1c[nH]c2ncccc12)C(=O)O; Phe(4-CH2NH2) = NCc1ccc(C[C@H](N)C(=O)O)cc1; Trp(1-Me) = Cn1cc(C[C@H](N)C(=O)O)c2ccccc21; Pip(5R-OH) = O=C(O)[C@@H]1CC[C@@H](O)CN1; αMeW = C[C@](N)(Cc1c[nH]c2ccccc12)C(=O)O; X1 = O=C([C@@H]1CC[C@H](N[*:1])C1)[*:2]; 1Nal = N[C@@H](Cc1cccc2ccccc12)C(=O)O; 2Nal = N[C@@H](Cc1ccc2ccccc2c1)C(=O)O; N(CH2CH2COOH)Gly = O=C(O)CCNCC(=O)O; hPhe = N[C@@H](CCc1ccccc1)C(=O)O; 3Pal = N[C@@H](Cc1cccnc1)C(=O)O; 4Pal = N[C@@H](Cc1ccncc1)C(=O)O; NMeE = CN[C@@H](CCC(=O)O)C(=O)O; NMeN = CN[C@@H](CC(N)=O)C(=O)O; NMeDab = CN[C@@H](CCN)C(=O)O; Dap(Me) = CNC[C@H](N)C(=O)O; NEtAla = CCN[C@@H](C)C(=O)O; Pip = O=C(O)[C@@H]1CCCCN1; αMeS = C[C@](N)(CO)C(=O)O; NMeA = CN[C@@H](C)C(=O)O; Nle = CCCC[C@H](N)C(=O)O; Dap = NC[C@H](N)C(=O)O; Sar = CNCC(=O)O
# Assays:
# [1] = biological target: T1, TNFα-induced NF-κB signal transduction pathway (TNFR1 signaling) in THP-1 cells (Homo sapiens, UniProt P19438); assay: THP-1 Lucia NF-κB reporter cell assay, inhibition of TNFα-induced NF-κB signaling; format: cell-based; settings: THP-1 NF-κB Lucia reporter cells, 10 ng/mL TNFα, 16-18 h, secreted luciferase; read-out: THP-1 IC50
# T1 sequence (P19438 30-455): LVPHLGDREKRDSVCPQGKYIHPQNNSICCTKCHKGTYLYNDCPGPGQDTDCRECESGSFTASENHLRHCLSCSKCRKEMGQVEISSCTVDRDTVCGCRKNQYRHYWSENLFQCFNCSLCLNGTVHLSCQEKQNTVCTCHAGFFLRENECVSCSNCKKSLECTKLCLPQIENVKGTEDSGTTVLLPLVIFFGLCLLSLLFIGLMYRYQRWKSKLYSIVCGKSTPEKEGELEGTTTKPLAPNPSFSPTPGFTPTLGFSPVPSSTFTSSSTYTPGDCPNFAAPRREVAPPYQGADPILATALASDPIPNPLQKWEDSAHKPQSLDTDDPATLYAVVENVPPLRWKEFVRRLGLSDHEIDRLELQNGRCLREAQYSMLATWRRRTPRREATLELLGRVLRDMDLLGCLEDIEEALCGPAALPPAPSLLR
# Method in brief: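 Inhibition of TNFR1-driven NF-κB activation was measured as luminescence of secreted reporter luciferase following overnight (16-18 h) stimulation with 10 ng/mL TNFα.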
# [2] = biological target: T2, human TNFR2 ECD protein (Homo sapiens, UniProt P20333); assay: SPR off-target binding (selectivity) to human TNFR2 ECD
# T2 construct: HRV 3C protease cleavage site (C); 6His (C, cleaved yes); made in house; host or cells: Sf21 insect cells (baculovirus), secreted
# T2 sequence (P20333 23-257): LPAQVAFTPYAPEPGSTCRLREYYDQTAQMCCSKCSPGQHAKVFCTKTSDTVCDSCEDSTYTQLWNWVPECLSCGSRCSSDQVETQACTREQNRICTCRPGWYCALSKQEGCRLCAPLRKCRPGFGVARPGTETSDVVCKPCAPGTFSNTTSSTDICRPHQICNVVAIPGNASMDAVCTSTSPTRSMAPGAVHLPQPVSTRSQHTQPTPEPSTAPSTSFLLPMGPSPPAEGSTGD
# Method in brief: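 Read-out: kon, koff and derived affinity from SPR response units. Human TNFR1 and TNFR2 ECD, Avi-tag biotinylated with BirA, captured on a streptavidin surface; peptides injected under laminar flow in HEPES-saline with EDTA, P20 and 2% DMSO.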
SMILES,IC50 [1] [nM],Kd [2] [nM]
"CCCC[C@@H]1NC(=O)CSC[C@@H](C(N)=O)NC(=O)[C@H]([C@@H](C)c2c[nH]c3c(OC)cccc23)NC(=O)CN(C)C(=O)[C@H](Cc2ccc(O)cc2)NC(=O)[C@H](Cc2ccc(C(=O)O)cc2)NC(=O)[C@](C)(CO)NC(=O)[C@H](Cc2c[nH]c3c(Cl)cccc23)NC(=O)[C@H](Cc2ccncc2)NC(=O)[C@H](CC(N)=O)NC(=O)CN(CCC(=O)O)C(=O)[C@H](Cc2c[nH]c3ncccc23)NC(=O)[C@@H]2CCCCN2C(=O)[C@H](Cc2ccncc2)NC1=O [SEQ ID NO. 220] ({CH2CO}-[Nle][4Pal][Pip][Trp(7-aza)][N(CH2CH2COOH)Gly]N[4Pal][Trp(7-Cl)][αMeS][Phe(4-COOH)]Y[Sar][Trp(βS-Me,7-OMe)]C-NH2; thioether N-14)",2.9,> 1000
CN1CC(=O)N[C@@H](Cc2c[nH]c3cccc(Cl)c23)C(=O)N[C@H](C(N)=O)CSCC(=O)N[C@@H](CC23CC(C2)C3)C(=O)N[C@@H](Cc2cccc(CN)c2)C(=O)N[C@@H](CO)C(=O)N[C@@H](Cc2c[nH]c3c(Cl)cccc23)C(=O)N2CCC[C@@H]2C(=O)N(C)[C@@H](CC(N)=O)C(=O)N[C@@H](Cc2ccc(C(=O)O)cc2)C(=O)N[C@@H](Cc2c[nH]c3c(Cl)cccc23)C(=O)N[C@@](C)(CO)C(=O)N[C@@H](Cc2ccc(C(=O)O)cc2)C(=O)N[C@@H](Cc2cccc(CN)c2)C1=O [SEQ ID NO. 222] ({CH2CO}-[Ala(1-bicyclo(1.1.1)pentyl)][Phe(3-CH2NH2)]S[Trp(7-Cl)][dP][NMeN][Phe(4-COOH)][Trp(7-Cl)][αMeS][Phe(4-COOH)][Phe(3-CH2NH2)][Sar][Trp(4-Cl)]C-NH2; thioether N-14),5.7,> 1000
CCCC[C@@H]1NC(=O)CSC[C@@H](C(N)=O)NC(=O)[C@H](Cc2cn(C)c3ccccc23)NC(=O)CN(C)C(=O)[C@H](Cc2ccc(O)cc2)NC(=O)[C@H](Cc2ccc(C(=O)O)cc2)NC(=O)[C@](C)(CO)NC(=O)[C@H](Cc2c[nH]c3c(Cl)cccc23)NC(=O)[C@H](Cc2ccncc2)NC(=O)[C@H](CC(N)=O)NC(=O)[C@H](CCC(=O)O)N(C)C(=O)[C@H](Cc2c[nH]c3ncccc23)NC(=O)[C@H](CO)NC(=O)[C@H](Cc2ccncc2)NC1=O [SEQ ID NO. 223] ({CH2CO}-[Nle][4Pal]S[Trp(7-aza)][NMeE]N[4Pal][Trp(7-Cl)][αMeS][Phe(4-COOH)]Y[Sar][Trp(1-Me)]C-NH2; thioether N-14),2.9,> 1000
CCCC[C@@H]1NC(=O)CSC[C@@H](C(N)=O)NC(=O)[C@](C)(Cc2c[nH]c3ccccc23)NC(=O)CN(C)C(=O)[C@H](Cc2ccc(O)cc2)NC(=O)[C@H](Cc2ccc(CC(=O)O)cc2)NC(=O)[C@](C)(CO)NC(=O)[C@H](Cc2c[nH]c3c(Cl)cccc23)NC(=O)[C@H](Cc2ccncc2)NC(=O)[C@H](CC(N)=O)NC(=O)[C@H](CCC(=O)O)N(C)C(=O)[C@H](Cc2c[nH]c3ncccc23)NC(=O)[C@H](CO)NC(=O)[C@H](Cc2ccc(CN)cc2)NC1=O [SEQ ID NO. 224] ({CH2CO}-[Nle][Phe(4-CH2NH2)]S[Trp(7-aza)][NMeE]N[4Pal][Trp(7-Cl)][αMeS][Phe(4-CH2COOH)]Y[Sar][αMeW]C-NH2; thioether N-14),4.8,> 1000
C[C@H]1C(=O)N[C@@H](CC(N)=O)C(=O)N[C@@H](Cc2ccncc2)C(=O)N[C@@H](Cc2ccc3ccccc3c2)C(=O)N[C@@](C)(CO)C(=O)N[C@@H](Cc2ccc(C(=O)O)cc2)C(=O)N[C@@H](Cc2ccc(O)cc2)C(=O)N(C)CC(=O)N[C@@H](Cc2c[nH]c3ccccc23)C(=O)N[C@H](C(N)=O)CSCC(=O)N[C@@H](CCCCN)C(=O)N[C@@H](Cc2ccncc2)C(=O)N[C@@H](CO)C(=O)N[C@@H](Cc2cccc3ccccc23)C(=O)N1C [SEQ ID NO. 227] ({CH2CO}-K[4Pal]S[1Nal][NMeA]N[4Pal][2Nal][αMeS][Phe(4-COOH)]Y[Sar]WC-NH2; thioether N-14),13.5,> 1000
"CCCC[C@@H]1NC(=O)[C@@H]2CC[C@@H](C2)NC(=O)[C@H]([C@@H](C)c2c[nH]c3c(OC)cccc23)NC(=O)CN(C)C(=O)[C@H](Cc2ccc(C(N)=O)cc2)NC(=O)[C@H](Cc2ccc(C(N)=O)cc2)NC(=O)[C@](C)(CO)NC(=O)[C@H](Cc2c[nH]c3c(Cl)cccc23)NC(=O)[C@H](Cc2ccncc2)NC(=O)[C@H](CC(N)=O)NC(=O)[C@H](CCC(=O)O)N(C)C(=O)[C@H](Cc2c[nH]c3ccccc23)NC(=O)[C@@H]2CC[C@@H](O)CN2C(=O)[C@H](Cc2ccncc2)NC1=O [SEQ ID NO. 229] (cyclo([4Pal][Trp(7-Cl)][αMeS][Phe(4-CONH2)][Phe(4-CONH2)][Sar][Trp(βS-Me,7-OMe)][X1][Nle][4Pal][Pip(5R-OH)]W[NMeE]N))",0.5,> 1000
CCCC[C@@H]1NC(=O)CSC[C@@H](C(N)=O)NC(=O)[C@](C)(Cc2c[nH]c3ccccc23)NC(=O)CN(C)C(=O)[C@H](Cc2ccc(O)cc2)NC(=O)[C@H](Cc2ccc(C(=O)O)cc2)NC(=O)[C@](C)(CO)NC(=O)[C@H](Cc2c[nH]c3c(Cl)cccc23)NC(=O)[C@H](Cc2ccncc2)NC(=O)[C@H](CC(N)=O)NC(=O)[C@H](CCC(=O)O)N(C)C(=O)[C@H](Cc2c[nH]c3ncccc23)NC(=O)[C@H](CCN)N(C)C(=O)[C@H](Cc2ccncc2)NC1=O [SEQ ID NO. 231] ({CH2CO}-[Nle][4Pal][NMeDab][Trp(7-aza)][NMeE]N[4Pal][Trp(7-Cl)][αMeS][Phe(4-COOH)]Y[Sar][αMeW]C-NH2; thioether N-14),6.1,> 1000
CCN1C(=O)[C@H](Cc2c[nH]c3c(Cl)cccc23)NC(=O)[C@H](CO)NC(=O)[C@H](Cc2ccncc2)NC(=O)[C@H](CC23CC(C2)C3)NC(=O)CSC[C@@H](C(N)=O)NC(=O)[C@H](Cc2c[nH]c3ncccc23)NC(=O)CN(C)C(=O)[C@H](Cc2ccc(O)cc2)NC(=O)[C@H](Cc2ccc(C(=O)O)cc2)NC(=O)[C@](C)(CO)NC(=O)[C@H](Cc2c[nH]c3ncccc23)NC(=O)[C@H](Cc2ccc(C(=O)O)cc2)NC(=O)[C@H](CC(N)=O)NC(=O)[C@@H]1C [SEQ ID NO. 232] ({CH2CO}-[Ala(1-bicyclo(1.1.1)pentyl)][4Pal]S[Trp(7-Cl)][NEtAla]N[Phe(4-COOH)][Trp(7-aza)][αMeS][Phe(4-COOH)]Y[Sar][Trp(7-aza)]C-NH2; thioether N-14),6.3,> 1000
CN1CC(=O)N[C@@H](Cc2c[nH]c3ccccc23)C(=O)N[C@H](C(N)=O)CSCC(=O)N[C@@H](CCc2ccccc2)C(=O)N[C@@H](Cc2ccncc2)C(=O)N[C@@H](CN)C(=O)N[C@@H](Cc2c[nH]c3ccccc23)C(=O)N2CCC[C@@H]2C(=O)N[C@@H](CC(N)=O)C(=O)N[C@@H](Cc2ccncc2)C(=O)N[C@@H](Cc2ccc3ccccc3c2)C(=O)N[C@@](C)(CO)C(=O)N[C@@H](Cc2ccc(C(=O)O)cc2)C(=O)N[C@@H](Cc2cccnc2)C1=O [SEQ ID NO. 233] ({CH2CO}-[hPhe][4Pal][Dap]W[dP]N[4Pal][2Nal][αMeS][Phe(4-COOH)][3Pal][Sar]WC-NH2; thioether N-14),14.2,> 1000
CCCC[C@@H]1NC(=O)CSC[C@@H](C(N)=O)NC(=O)[C@](C)(Cc2c[nH]c3ccccc23)NC(=O)CN(C)C(=O)[C@H](Cc2ccc(O)cc2)NC(=O)[C@H](Cc2ccc(C(=O)O)cc2)NC(=O)[C@](C)(CO)NC(=O)[C@H](Cc2c[nH]c3c(Cl)cccc23)NC(=O)[C@H](Cc2ccncc2)NC(=O)[C@H](CC(N)=O)NC(=O)[C@H](CCC(=O)O)N(C)C(=O)[C@H](Cc2c[nH]c3ncccc23)NC(=O)[C@H](CNC)NC(=O)[C@H](Cc2ccncc2)NC1=O [SEQ ID NO. 235] ({CH2CO}-[Nle][4Pal][Dap(Me)][Trp(7-aza)][NMeE]N[4Pal][Trp(7-Cl)][αMeS][Phe(4-COOH)]Y[Sar][αMeW]C-NH2; thioether N-14),5,> 1000
CN1CC(=O)N[C@@H](Cc2c[nH]c3cccc(Cl)c23)C(=O)N[C@H](C(N)=O)CSCC(=O)N[C@@H](CCC(N)=O)C(=O)N[C@@H](Cc2ccncc2)C(=O)N[C@@H](CO)C(=O)N[C@@H](Cc2c[nH]c3ncccc23)C(=O)N(C)[C@@H](CCC(=O)O)C(=O)N[C@@H](CC(N)=O)C(=O)N[C@@H](Cc2ccncc2)C(=O)N[C@@H](Cc2c[nH]c3c(Cl)cccc23)C(=O)N[C@@](C)(CO)C(=O)N[C@@H](Cc2ccc(C(=O)O)cc2)C(=O)N[C@@H](Cc2ccc(O)cc2)C1=O [SEQ ID NO. 239] ({CH2CO}-Q[4Pal]S[Trp(7-aza)][NMeE]N[4Pal][Trp(7-Cl)][αMeS][Phe(4-COOH)]Y[Sar][Trp(4-Cl)]C-NH2; thioether N-14),1.4,> 1000
